Read-outs that look alike come from different tables or passages of the source.
Tests used:
LecA [1] = target: T1, LecA (Pseudomonas aeruginosa, UniProt Q05097); assay: Inhibition of Hemagglutination (HIA), LecA-induced agglutination of rabbit erythrocytes; type: cell-based; conditions: LecA 6 μg/mL, 25° C.
Procedure: Inhibition of Hemagglutination (IHA) (or Hemagglutination Inhibition Assays (HIA)).
The LecA lectin agglutinates red blood cells since they are covered by glycoconjugates. The glycomimetics inhibit this agglutination.
For each compound the minimum concentration able to perform inhibition has been evaluated. The method is not very quantitative but mimics natural system.
(§1) More particularly, hemagglutination inhibition assays were performed in U-shaped 96-well microtitre plates. Rabbit erythrocytes were bought from Biomerieux and used without further washing. The erythrocytes were diluted to a 4% solution in NaCl (150 mM). Lectin solutions of 2 mg/mL were prepared in Tris/HCl 20 mM, NaCl 100 mM and CaCl2 100 μM. The hemagglutination unit (HU) was first obtained by the addition of 25 μL of the 4% erythrocyte solution to 25 μL aliquots of sequential (two-fold) lectin dilutions. The mixture was incubated at 25° C. for 60 minutes. The HU was measured as the minimum lectin concentration required to […] hemagglutination. For the following lectin-inhibition assays, lectin concentrations of four times that of the hemagglutination unit were used, i.e. a concentration of 6 μg/mL for LecA. Subsequent assays were then carried out by the addition of 12.5 μL lectin solution (at the required concentration) to 25 μL of sequential dilutions of glycoclusters, monomer molecules and controls. These solutions were then incubated at 25° C. for 2 h then 12.5 μL of 4% erythrocyte solution was added followed by an additional incubation at 25° C. for 30 minutes. The minimum inhibitory concentration for each molecule was determined by simple eye detection.
Compounds 5, 10, 14, 19, 21, 23, 25, 27, 29 and 31 were evaluated towards LecA according to Method 1.

LecA [2] = target: T1, LecA; assay: Enzyme-Linked Lectin Assay (ELLA), biotinylated LecA binding to polymeric galactose
Procedure: Enzyme-Linked Lectin Assay (ELLA) Experiments 96-well plates are covered with polymer presenting galactose (which is the monosaccharide that is bound by LecA). The lectin labelled with biotin is added in presence of competing glycomimetics. IC50 can be measured.
More particularly, ELLA experiments were conducted using 96-well microtitre plates (Nunc Maxisorb) coated with polymeric β-D-galactose (5 μg/mL; Lectinity Holding, Inc., Moscow) diluted in carbonate buffer, pH 9.6 (100 μL) for 1 h at 37° C. After blocking at 37° C. for 1 h with 100 μL per well of 3% (w/v) BSA in PBS, plates were incubated at 37° C. for 1 h with 100 μL of biotinylated LecA at 0.1 μg/mL in the presence of serial dilutions of inhibitors. After washing with T-PBS (PBS containing 0.05% Tween), 100 μL of streptavidinperoxidase conjugate (dilution 1:10000; Boehringer-Mannheim) was added and left for 1 h at 37° C. The color was developed using 100 μL per well of 0.05 M phosphate/citrate buffer containing O-phenylenediamine dihydrochloride (0.4 mg/mL) and urea hydrogen peroxide (0.4 mg/mL) (Sigma-Aldrich). The reaction was stopped by the addition of 50 μL of 30% H2SO4. Absorbance was read at 490 nm using a microtitre plate reader (Bio-Rad; model 680).

LecA [3] = target: T1, LecA; assay: biochemical; type: binding
Procedure: Surface Plasmon Resonance (SPR).
Equivalent method, but performed in miniaturized channel on a galactose-containing chips in a more sophisticated apparatus (Biacore 3000) that allows for a precise determination of the IC50.
More particularly, SPR inhibition experiments were performed on a Biacore 3000 instrument at 25° C. Measurements were carried out on 2 channels with 2 immobilised sugars: α-L-fucose (channel 1), α-D-galactose (channel 2). Immobilization of sugars was performed at 25° C. using running buffer (HBS) at 5 μL/min. Immobilization on each channel (CM5 Chip) was performed independently as follows. First, channel was activated by injecting a fresh mixture of EDC/NHS (35 μL, 420 s). Then, a solution of strepatavidin (100 μg/mL in Na acetate pH 5 buffer) was injected (50 μL, 600 s). Remaining reactive species were quenched by injecting ethanolamine (1M, 35 μL, 420 s). Finally a solution of the desired biotinylated-polyacrylamide-sugar (Lectinity, 200 μg/mL) was coated onto the surface (50 μL, 600 s) through streptavidin-biotin interaction. This procedure led to 804 RU (fucoside) and 796 RU (galactoside) of immobilized sugars on channel 1 and 2 respectively. Inhibition experiments were performed with the galactosylated channel 2 and plots represent subtracted data (channel 2-channel 1).
LecA was injected using running buffer consisting of HEPES 10 mM, NaCl 150 mM, CaCl2 10 mM, Tween P20 0.005%, pH 7.4. Inhibition studies consisted in the injection (150 μL, 10 μL/min, dissociation: 120 s) of incubated (>1 h, r.t.) mixtures of LecA (5 μM) and various concentrations of inhibitor (2-fold cascade dilutions). For each inhibition assay, LecA (5 μM) without inhibitor was injected to observe the full adhesion of the lectin onto the sugar-coated surface (0% inhibition). The CM5 chip was fully regenerated by successive injections of D-Galactose (2×30 μL, 100 mM in running buffer).
Binding was measured as RU over time after blank subtraction, and data were then evaluated using the BIAevaluation Software, version 4.1. For IC50 evaluation, the response (Req-fitted) was considered as the amount of lectin bound to the sugar surface at equilibrium in the presence of a defined concentration of inhibitor. Inhibition curves were obtained by plotting the percentage of inhibition against the inhibitor concentration (on a logarithmic scale) by using Origin 7.0 software (OriginLab Corp.) and IC50 values were extracted from sigmoidal fit of the inhibition curve.

Rabbit erythrocytes = assay: Hemolysis of red cells observed in the hemagglutination inhibition assay; type: cell-based; conditions: at the concentration used in the hemagglutination inhibition assay
Procedure: as §1
The values given in table 1 are inhibiting concentrations of lectin-induced rec cells agglutination. Monocovalent glycoconjugate compound 14 and tetravalent glyconjugate compounds 21 and 23 are the most efficient.

LecA [4] = target: T1, LecA; assay: biochemical; type: binding; remark: listed apart in the source
Procedure: Isothermal Titration Microcalorimetry (ITC).
The method allows for a direct measurement of the affinity between the glycomimetics and the LecA lectin. The dissociation constant is measured.
More particularly, recombinant lyophilized LecA was dissolved in buffer (0.1 M TrisHCl, 6 μM CaCl2, pH 7.5) and degassed (see Supp. Info. for concentration details). Protein concentration was checked by measurement of optical density using a theoretical molar extinction coefficient of 28000. Carbohydrate ligands were dissolved directly into the same buffer, degassed, and placed in the injection syringe. ITC was performed with a VP-ITC MicroCalorimeter from MicroCal Incorporated. PA-IL was placed into the 1.4478-mL sample cell, at 25° C. Titration was performed with 10-μL injections of carbohydrate ligands every 300 s. Data were fitted with MicroCal Origin 7 software, according to standard procedures. Fitted data yielded the stoichiometry (n), the association constant (Ka) and the enthalpy of binding (ΔH).
Other thermodynamic parameters (i.e. changes in free energy, ΔG, and entropy, ΔS) were calculated from the equation: ΔG=ΔH TΔS=−RT Inka where T is the absolute temperature and R=8.314 J·mol^−1·K^−1. Two or three independent titrations were performed for each ligand tested.

[5] = read-out: IC50 for the inhibition of labelled-LecA binding to a galactosylated polymer (ELLA), biotinylated LecA 0.1 μg/mL, multi-well plate
[6] = read-out: IC50 for the inhibition of label-free LecA binding to a galactosylated chip surface (SPR), LecA 5 μM, 25° C.
[7] = read-out: Dissociation constant for the interaction in solution with LecA (ITC), 25° C., 0.1 M TrisHCl, pH 7.5

T1 sequence (Q05097 whole entry): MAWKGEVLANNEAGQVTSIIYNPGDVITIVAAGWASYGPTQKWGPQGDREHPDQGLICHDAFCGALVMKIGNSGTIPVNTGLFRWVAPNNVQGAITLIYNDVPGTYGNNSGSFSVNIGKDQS

| Structure (SMILES) | inhibiting concentrations of lectin-induced red cells agglutination (minimum inhibitory concentration) (LecA [1]) | IC50 (LecA [2]; [5]) [µM] | IC50 (SPR), in words (LecA [3]) | IC50 (LecA [3]; [6]) [µM] | Hemolysis of red cells (Rabbit erythrocytes) | also measured |
| --- | --- | --- | --- | --- | --- | --- |
| CC(C)(C)c1cc2c(OCc3cn(CC(=O)NCC(=O)NCCOC4OC(CO)C(O)C(O)C4O)nn3)c(c1)Cc1cc(C(C)(C)C)cc(c1OCc1cn(CC(=O)NCC(=O)NCCOC3OC(CO)C(O)C(O)C3O)nn1)Cc1cc(C(C)(C)C)cc(c1OCc1cn(CC(=O)NCC(=O)NCCOC3OC(CO)C(O)C(O)C3O)nn1)Cc1cc(C(C)(C)C)cc(c1OCc1cn(CC(=O)NCC(=O)NCCOC3OC(CO)C(O)C(O)C3O)nn1)C2 (stereo not drawn) [Comp. 25] | 625 µM | 14 | micromolar range | 1.2 |  |  |
| CC(C)(C)c1cc2c(OCc3cn(CC(=O)Nc4ccc(OC5OC(CO)C(O)C(O)C5O)cc4)nn3)c(c1)Cc1cc(C(C)(C)C)cc(c1OCc1cn(CC(=O)Nc3ccc(OC4OC(CO)C(O)C(O)C4O)cc3)nn1)Cc1cc(C(C)(C)C)cc(c1OCc1cn(CC(=O)Nc3ccc(OC4OC(CO)C(O)C(O)C4O)cc3)nn1)Cc1cc(C(C)(C)C)cc(c1OCc1cn(CC(=O)Nc3ccc(OC4OC(CO)C(O)C(O)C4O)cc3)nn1)C2 (stereo not drawn) [Comp. 31] |  | 5 |  |  | Hemolysis of red cells is observed |  |
| CC(C)(C)c1cc2c(OCc3cn(CC(=O)Nc4ccc(OC5OC(CO)C(O)C(O)C5O)cc4)nn3)c(c1)Cc1cc(C(C)(C)C)cc(c1OCc1cn(CC(=O)Nc3ccc(OC4OC(CO)C(O)C(O)C4O)cc3)nn1)Cc1cc(C(C)(C)C)cc(c1OCc1cn(CC(=O)Nc3ccc(OC4OC(CO)C(O)C(O)C4O)cc3)nn1)Cc1cc(C(C)(C)C)cc(c1OCc1cn(CC(=O)Nc3ccc(OC4OC(CO)C(O)C(O)C4O)cc3)nn1)C2 (stereo not drawn) [Comp. 27] |  | 0.8 |  |  | Hemolysis of red cells is observed | IC50 (ELLA), in words (LecA [2]): sub micromolar range |
| CC(C)(C)c1cc2c(OCc3cn(CC(=O)NCC(=O)NCCOC4OC(CO)C(O)C(O)C4O)nn3)c(c1)Cc1cc(C(C)(C)C)cc(c1OCc1cn(CC(=O)NCC(=O)NCCOC3OC(CO)C(O)C(O)C3O)nn1)Cc1cc(C(C)(C)C)cc(c1OCc1cn(CC(=O)NCC(=O)NCCOC3OC(CO)C(O)C(O)C3O)nn1)Cc1cc(C(C)(C)C)cc(c1OCc1cn(CC(=O)NCC(=O)NCCOC3OC(CO)C(O)C(O)C3O)nn1)C2 (stereo not drawn) [Comp. 21] | 250 µM | 21 |  |  |  |  |
| CC(C)(C)c1cc2c(OCc3cn(CC(=O)Nc4ccc(OC5OC(CO)C(O)C(O)C5O)cc4)nn3)c(c1)Cc1cc(C(C)(C)C)cc(c1OCc1cn(CC(=O)Nc3ccc(OC4OC(CO)C(O)C(O)C4O)cc3)nn1)Cc1cc(C(C)(C)C)cc(c1OCc1cn(CC(=O)Nc3ccc(OC4OC(CO)C(O)C(O)C4O)cc3)nn1)Cc1cc(C(C)(C)C)cc(c1OCc1cn(CC(=O)Nc3ccc(OC4OC(CO)C(O)C(O)C4O)cc3)nn1)C2 (stereo not drawn) [Comp. 29] |  | 0.9 |  |  | Hemolysis of red cells is observed | IC50 (ELLA), in words (LecA [2]): sub micromolar range |
| O=C(CNC(=O)Cn1cc(CO)nn1)NCCO[C@@H]1O[C@H](CO)[C@H](O)[C@H](O)[C@H]1O [Comp. 10, 2-N-[(1,2,3-Triazol-4-hydroxymethyl-1-yl)-acetamido]glycinamido-ethyl β-D-galactopyranoside] | 2 500 μM |  |  |  |  | IC50 (LecA [2]): 300 µM; IC50 (LecA [3]): 60 µM; Kd (LecA [4]): 180 µM |
| O=C(Cn1cc(CO)nn1)NCCOCCO[C@@H]1O[C@H](CO)[C@H](O)[C@H](O)[C@H]1O [Comp. 5, 1-[(1,2,3-Triazol-4-hydroxymethyl-1-yl)-acetamido]-3-oxapent-5-yl β-D-galactopyranoside] | 10 000 μM |  |  |  |  | IC50 (LecA [2]): 250 µM; IC50 (LecA [3]): 58.3 µM; Kd (LecA [4]): 107 µM |
| CC(C)(C)c1cc2c(OCc3cn(CC(=O)NCCOCCOC4OC(CO)C(O)C(O)C4O)nn3)c(c1)Cc1cc(C(C)(C)C)cc(c1OCc1cn(CC(=O)NCCOCCOC3OC(CO)C(O)C(O)C3O)nn1)Cc1cc(C(C)(C)C)cc(c1OCc1cn(CC(=O)NCCOCCOC3OC(CO)C(O)C(O)C3O)nn1)Cc1cc(C(C)(C)C)cc(c1OCc1cn(CC(=O)NCCOCCOC3OC(CO)C(O)C(O)C3O)nn1)C2 (stereo not drawn) [Comp. 19] | 500 µM | 7 | micromolar range | 1 |  | Kd (LecA [4]; [7]): 0.094 µM; Kd (LecA [4]; read-out: dissociation constant (ITC), 25° C.): 0.094 µM |
| CC(C)(C)c1cc2c(OCc3cn(CC(=O)NCC(=O)NCCOC4OC(CO)C(O)C(O)C4O)nn3)c(c1)Cc1cc(C(C)(C)C)cc(c1OCc1cn(CC(=O)NCC(=O)NCCOC3OC(CO)C(O)C(O)C3O)nn1)Cc1cc(C(C)(C)C)cc(c1OCc1cn(CC(=O)NCC(=O)NCCOC3OC(CO)C(O)C(O)C3O)nn1)Cc1cc(C(C)(C)C)cc(c1OCc1cn(CC(=O)NCC(=O)NCCOC3OC(CO)C(O)C(O)C3O)nn1)C2 (stereo not drawn) [Comp. 23] | 250 µM | 7 | micromolar range | 1.1 |  | Kd (LecA [4]; [7]): 239 µM |
